Consider 24 compounds from PMC9813676 (Current Research in Food Science, 2022).

Data set [1] deals with T1, porcine pancreatic lipase (Sus scrofa, UniProt P00591).
T1 sequence (P00591 1-450): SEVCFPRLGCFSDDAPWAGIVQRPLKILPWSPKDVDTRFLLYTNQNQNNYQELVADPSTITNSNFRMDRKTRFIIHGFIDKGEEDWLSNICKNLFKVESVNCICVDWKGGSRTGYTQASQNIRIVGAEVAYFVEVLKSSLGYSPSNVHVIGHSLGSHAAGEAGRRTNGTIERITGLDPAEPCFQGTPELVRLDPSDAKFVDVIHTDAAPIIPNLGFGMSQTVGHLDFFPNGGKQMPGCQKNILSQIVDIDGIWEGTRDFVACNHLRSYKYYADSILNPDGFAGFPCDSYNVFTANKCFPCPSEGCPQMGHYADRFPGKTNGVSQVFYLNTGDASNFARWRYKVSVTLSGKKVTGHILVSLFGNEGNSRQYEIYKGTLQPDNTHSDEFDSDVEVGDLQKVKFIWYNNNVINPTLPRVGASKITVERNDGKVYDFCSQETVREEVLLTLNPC
The experiment in a line: Fluorescence titration of lipase. It is filed as binding. The following applies: for n (number of binding sites) / binding affinity with lipase (in words): fluorescence titration; for n (number of binding sites): excitation 280 nm, Tris-HCl pH 8.0.

In data set [2] the target is T1, porcine pancreatic lipase. Briefly: Inhibitory activity on pancreatic lipase. The following applies: IC50, pNPP substrate, Tris-HCl pH 8.0, 37 °C, means ± SD of triplicate.
A further data set concerns pancreatic lipase. The following applies: ref Kumar and Alagawadi, 2013; cited from earlier work.
The conditions of data set [3]: rats, cited from earlier work.
For data set [4] the following is noted: ref Zhi et al., 1999; cited from earlier work.
[5] abbreviates: oral administration, ref Zhou et al., 2021.

Where only a bound is given, the exact number is not on record here.

The term Kd denotes the constant that tells how readily two partners part at equilibrium. A lower Kd goes with higher affinity. One may read the IC50 as the point on the concentration scale where inhibition reaches its midpoint. On to `O=c1cc(-c2ccc(O)cc2)oc2cc(O)cc(O)c12` [Apigenin], for which, in data set [1], binding was put at a Kd of 3.86 µM and the “n (number of binding sites)” value is 1.156. The compound further came in with a 50% inhibitory concentration (IC50) in data set [2] of 256 ± 54 µM.

Regarding `C[C@@H]1O[C@@H](O[C@H]2C(=O)c3c(O)cc(O)cc3O[C@@H]2c2ccc(O)c(O)c2)[C@H](O)[C@H](O)[C@H]1O` [Astilbin], in data set [1], the equilibrium dissociation constant (Kd) was 151 µM and the “n (number of binding sites)” value came out at 0.850. In addition, in data set [2], half-maximal inhibition (IC50) required 7316 ± 66 µM.

On to `O=c1cc(-c2ccccc2)oc2cc(O)c(O)c(O)c12` [Baicalein], for which, in data set [1], binding was characterised by a dissociation constant (Kd) of 0.671 µM and the “n (number of binding sites)” value came to 1.270. Further, inhibition in data set [2] was half-maximal at 156 ± 22 µM (IC50).

Regarding `O=c1cc(-c2ccccc2)oc2cc(O)cc(O)c12` [Chrysin], in data set [1], binding was characterised by a dissociation constant (Kd) of 16.3 µM and the “n (number of binding sites)” value was found to be 0.964. Besides, in data set [2], the IC50 is > 593 µM.

Take `O=c1c(-c2ccc(O)cc2)coc2cc(O)ccc12` [Daidzein]: in data set [1], binding was put at a Kd of 11.6 µM and the “n (number of binding sites)” value worked out at 1.101. Further, in data set [2], the IC50 was found to be 852 ± 667 µM.

On to `O=c1c(-c2ccc(O)cc2)coc2cc(O[C@@H]3O[C@H](CO)[C@@H](O)[C@H](O)[C@H]3O)ccc12` [Daidzin], for which, in data set [1], the dissociation constant Kd is 141 µM and the “n (number of binding sites)” value worked out at 0.877. Besides, the IC50 in data set [2] is > 1150 µM.

Turning to `O=C1c2c(O)cc(O)cc2O[C@H](c2cc(O)c(O)c(O)c2)[C@H]1O` [Dihydromyricetin], in data set [1], the Kd is 105 µM and the “n (number of binding sites)” value is given as 0.911. Also, the IC50 in data set [2] worked out at 7170 ± 418 µM.

As for `Oc1cc(O)c2c(c1)O[C@H](c1ccc(O)c(O)c1)[C@H](O)C2` [Epicatechin], in data set [1], the equilibrium dissociation constant (Kd) is 3160 µM, the “binding affinity with lipase (in words)” value is given as “very weak binding affinity” and the “n (number of binding sites)” value was determined as 0.734. Moreover, the half-maximal inhibitory concentration (IC50) in data set [2] was > 20700 µM.

With `Oc1cc(O)c2c(c1)O[C@H](c1cc(O)c(O)c(O)c1)[C@H](O)C2` [Epigallocatechin], in data set [1], binding was characterised by a dissociation constant (Kd) of 5820 µM, the “binding affinity with lipase (in words)” value is recorded as “very weak binding affinity” and the “n (number of binding sites)” value stood at 0.670. Further, the IC50 in data set [2] was > 49000 µM.

`COc1ccc(-c2coc3cc(O)ccc3c2=O)cc1` [Formononetin]: in data set [1], binding was put at a Kd of 83.2 µM and the “n (number of binding sites)” value worked out at 0.926. For the same compound, the IC50 in data set [2] is > 1860 µM.

As for `O=c1c(O)c(-c2ccccc2)oc2cc(O)cc(O)c12` [Galangin], in data set [1], binding was put at a Kd of 13.7 µM and the “n (number of binding sites)” value was found to be 1.097. The “inhibition on pancreatic lipase activity” value in the data set with pancreatic lipase is reported as “dose-dependent inhibition”. Also, the anti-obesity effects entry in data set [3] (ref Kumar and Alagawadi, 2013) is “exhibited anti-obesity effects”. For the same compound, 574 ± 132 µM corresponded to half-maximal inhibition in data set [2] (IC50).

As for `O=c1c(-c2ccc(O)cc2)coc2cc(O)cc(O)c12` [Genistein], in data set [1], the Kd is 4.94 µM and the “n (number of binding sites)” value was found to be 1.129. For the same compound, in data set [2], the concentration for half-maximal inhibition (IC50) was > 2960 µM.

Consider `O=c1c(-c2ccc(O)cc2)coc2cc(O[C@@H]3O[C@H](CO)[C@@H](O)[C@H](O)[C@H]3O)cc(O)c12` [Genistin], for which, in data set [1], binding was characterised by a dissociation constant (Kd) of 10.8 µM and the “n (number of binding sites)” value was 1.086. Besides, the 50% inhibitory concentration (IC50) in data set [2] was > 925 µM.

Regarding `COc1ccc([C@@H]2CC(=O)c3c(O)cc(O)cc3O2)cc1O` [Hesperetin], in data set [1], the dissociation constant Kd is 41.4 µM and the “n (number of binding sites)” value is listed as 0.998. For the same compound, the IC50 in data set [2] was 3030 ± 829 µM.

For the compound `O=c1cc(-c2ccc(O)c(O)c2)oc2cc(O)c([C@@H]3O[C@H](CO)[C@@H](O)[C@H](O)[C@H]3O)c(O)c12` [Isoorientin], in data set [1], binding was characterised by a dissociation constant (Kd) of 4.66 µM and the “n (number of binding sites)” value was 1.278.

With `O=c1c(O)c(-c2ccc(O)cc2)oc2cc(O)cc(O)c12` [Kaempferol], in data set [1], the dissociation constant Kd was 4.06 µM and the “n (number of binding sites)” value turned out to be 1.163. Besides, the IC50 in data set [2] is > 983 µM.

Regarding `O=c1cc(-c2ccc(O)c(O)c2)oc2cc(O)cc(O)c12` [Luteolin], in data set [1], the Kd was 0.156 µM and the “n (number of binding sites)” value turned out to be 1.435. Further, the concentration for half-maximal inhibition (IC50) in data set [2] is 99 ± 11 µM.

Take `O=C1C[C@@H](c2ccc(O)cc2)Oc2cc(O)cc(O)c21` [Naringenin]: in data set [1], binding was characterised by a dissociation constant (Kd) of 33.3 µM and the “n (number of binding sites)” value came to 1.013. Also, inhibition in data set [2] was half-maximal at 6032 ± 41 µM (IC50).

With `COc1ccc(-c2coc3cc(O[C@@H]4O[C@H](CO)[C@@H](O)[C@H](O)[C@H]4O)ccc3c2=O)cc1` [Ononin], in data set [1], binding was put at a Kd of 10.9 µM and the “n (number of binding sites)” value is reported as 1.086. Besides, the 50% inhibitory concentration (IC50) in data set [2] was > 1160 µM.

`CCCCCCCCCCC[C@@H](C[C@@H]1OC(=O)[C@H]1CCCCCC)OC(=O)[C@H](CC(C)C)NC=O` [Orlistat]: the “absorption in circulatory blood” value in data set [4] is on record as “poorly absorbed”.

As for `O=c1c(-c2ccc(O)cc2)coc2c([C@@H]3O[C@H](CO)[C@@H](O)[C@H](O)[C@H]3O)c(O)ccc12` [Puerarin], in data set [1], binding was characterised by a dissociation constant (Kd) of 1.43 µM and the “n (number of binding sites)” value stood at 1.232. The 50% inhibitory concentration (IC50) in data set [2] is 16800 ± 692 µM.

As to `O=c1c(O)c(-c2ccc(O)c(O)c2)oc2cc(O)cc(O)c12` [Quercetin], the “n (number of binding sites)” value in data set [1] was found to be 1.419. In data set [3] (setting [5]), the “fat absorption in the gastrointestinal tract” value is “significantly reduced fat absorption” and the “fat excretion in feces” value is “increased fat excretion in feces”.

For `C[C@@H]1O[C@@H](OC[C@H]2O[C@@H](Oc3c(-c4ccc(O)c(O)c4)oc4cc(O)cc(O)c4c3=O)[C@H](O)[C@@H](O)[C@@H]2O)[C@H](O)[C@H](O)[C@H]1O` [Rutin], in data set [1], the Kd is 5.38 µM and the “n (number of binding sites)” value was found to be 1.115. The same compound gave an IC50 in data set [2] of 367 ± 182 µM.

With `O=C1c2c(O)cc(O)cc2OC(c2ccc(O)c(O)c2)C1O` (stereo not shown) [Taxifolin], in data set [1], the Kd is 56.2 µM and the “n (number of binding sites)” value was 0.956. Inhibition in data set [2] was half-maximal at 3870 ± 939 µM (IC50).
